Reference: patent publication US20260263418A1, “AGENTS FOR ENHANCING DOPAMINE RELEASE, IMPROVING MOTOR CONTROL FUNCTION, IMPROVING MOTOR LEARNING FUNCTION AND IMPROVING ACTIVITY MOTIVATION” (MEIJI CO., LTD., priority 2023, published 2026)
“And” between values parts separate entries of the source, which are not always exact repeats. Equal entries are not always repeated. Peptide text beside a SMILES is read from it.

Test system: PC12 cells
Assay: Dopamine release from PC12 cells after dipeptide addition (LC-MS/MS of supernatant)
Type: cell-based
Settings: 6 hours; for Change in dopamine concentration compared to the non-stimulated group / Dopamine concentration after stimulation, Mean ± Standard deviation / Percentage relative to non-stimulated group: 1 mM dipeptide; for Change in dopamine concentration compared to the non-stimulated group: Student's t-test, significance level 5%; for Dopamine concentration after stimulation, Mean ± Standard deviation: 3 wells; for Dopamine concentration after stimulation, Mean ± Standard deviation / Dopamine concentration after stimulation: 37° C., supernatant; for Percentage relative to non-stimulated group: dopamine concentration, non-stimulated group = 100; for Dopamine concentration after stimulation: individual wells, 1 mM dipeptide in medium
Experimental: PC12 cells were seeded in a 96-well plate at a cell count of 2×10^4 cells/well using DMEM containing 10% by volume of HS (Horse Serum), 10% by volume of FBS (Fetal Bovine Serum), 100 units/mL of penicillin and 100 μg/mL of streptomycin. The cells were cultured at 5% CO2 by volume and 37° C. The cells were cultured for 3 to 5 days to ensure that they were confluent, and then used for experiments.
The culture medium was removed from PC12 cells, which were washed twice with PBS (Phosphate Buffered Saline). The wells of the 96-well plate were divided into 5 groups: non-stimulated group (5 wells), WF administration group (3 wells), WH administration group (3 wells), WM administration group (3 wells) and WR administration group (3 wells). The WR administration group corresponds to Inventive Example, and the non-stimulated group, WF administration group, WH administration group and WM administration group correspond to Comparative Examples.
DMSO (Dimethyl Sulfoxide) was added to the same medium as the medium used to culture PC12 cells, thereby preparing a medium containing 1% by […] of DMSO. Dipeptide WF was added to the same medium as the medium used to culture PC12 cells, thereby preparing a medium containing 1 mM dipeptide WF. In the same way, a medium containing 1 mM dipeptide WH, a medium containing 1 mM dipeptide WM and a medium containing 1 mM dipeptide WR were prepared. The medium containing 1% by volume of DMSO (Dimethyl Sulfoxide) was added to the non-stimulated group, the medium containing 1 mM dipeptide WF was added to the WF administration group, the medium containing 1 mM dipeptide WH was added to the WH administration group, the medium containing 1 mM dipeptide WM was added to the WM administration group, and the medium containing 1 mM dipeptide WR was added to the WR administration group. These groups were incubated at 37° C. for 6 hours. After the incubation, supernatant of each well was collected.
Each supernatant was transferred onto ice. To each supernatant, 25 μL of 2M perchloric acid was added for protein removal, and after 10 minutes, 50 μL of 1M sodium acetate was added for neutralization. After 15 minutes, centrifugation was performed at 4° C. and 20000 G for 20 minutes. 100 μL of each supernatant was collected, and after added with 10 μL of 2 mM 3,4-dihydroxybenzylamine (DHBA) as an internal standard, it was passed through a chromatodisk to obtain a sample. The obtained sample was used for liquid chromatography-tandem mass spectrometry (LC-MS/MS).
LC-MS/MS was performed using a Triple TOF 6600+ system manufactured by SCIEX under the following measurement conditions. A calibration curve was prepared using pure products, and after correcting the peak area of dopamine with the peak area of the internal standard (DHBA), the dopamine concentration (nM) in each sample was calculated from the calibration curve. • Equipment: Triple TOF 6600+ System (SCIEX, Massachusetts, USA) • Column: Inertsil (registered trademark) ODS-4 (GL Sciences, Tokyo, Japan) • Eluent A: 0.1% aqueous solution of formic acid • Eluent B: 0.1% methanol solution of formic acid • Gradient conditions: As listed in Table 1
Data are presented as mean±standard deviation. For statistical processing, Student's t-test was used for comparisons between the non-stimulated group and each administration group. The significance level was set at 5%.

| SMILES | Change in dopamine concentration compared to the non-stimulated group | Dopamine concentration after stimulation, Mean ± Standard deviation [nM] | Percentage relative to non-stimulated group [%] | Dopamine concentration after stimulation |
| --- | --- | --- | --- | --- |
| N[C@@H](Cc1c[nH]c2ccccc12)C(=O)N[C@@H](Cc1ccccc1)C(=O)O [WF, tryptophanylphenylalanine] (H-Trp-Phe-OH) | did not exhibit such a significant increase in dopamine concentration | 19.56 ± 1.35 | 83.23 | 18.97 nM and 18.60 nM and 21.10 nM |
| N[C@@H](Cc1c[nH]c2ccccc12)C(=O)N[C@@H](Cc1c[nH]cn1)C(=O)O [WH, tryptophanylhistidine] (H-Trp-His-OH) | did not exhibit such a significant increase in dopamine concentration | 22.15 ± 4.13 | 94.26 | 26.89 nM and 19.36 nM and 20.20 nM |
| CSCC[C@H](NC(=O)[C@@H](N)Cc1c[nH]c2ccccc12)C(=O)O [WM, tryptophanylmethionine] (H-Trp-Met-OH) | did not exhibit such a significant increase in dopamine concentration | 24.57 ± 7.88 | 104.55 | 20.58 nM and 19.48 nM and 33.64 nM |
| N=C(N)NCCC[C@H](NC(=O)[C@@H](N)Cc1c[nH]c2ccccc12)C(=O)O [WR, tryptophanylarginine] (H-Trp-Arg-OH) | significant increase in dopamine concentration | 36.24 ± 2.10 | 154.23 | 38.47 nM and 34.30 nM and 35.95 nM |
